Results taken from patent US20260258073A1, “CRYSTALLINE FORMS OF A NEUROACTIVE STEROID” (SAGE THERAPEUTICS, INC., priority 2022, published 2026).

Columns and labels:
[1] = Dynamic vapor sorption (DVS) isotherm of the solid form; format: physicochemical
Experimental: DVS was measured using a SMS (Surface Measurement Systems) DVS Intrinsic. The relative humidity at 25° C. was calibrated against deliquescence point of LiCl, Mg(NO3)2 and KCl.
To investigate the solid form stability as a function of humidity, a DVS isotherm plot of Form A was collected at 25° C.

[2] = Solid form stability on heating and cooling, checked by XRPD; format: physicochemical; conditions: cooling down to room temperature under nitrogen protection, re-exposure to ambient conditions
Experimental: A PANalytical Empyrean X-ray powder diffractometer was used to collect X-ray diffraction patters as described herein. The diffraction peak position was calibrated using a PANalytical Si reference standard disc.
Form D was generated via vacuum dry of Form X. The XRPD pattern for Form D is provided in FIG. 3A and characteristic peaks are summarized in Table 20. […] (peak temperature) before a possible melting peak at 204.0° C. (peak temperature).
Form E was generated via liquid diffusion in BuOH/n-heptane of Form A at RT. […] (peak temperature) before possible melting peak at 203.1° C. (peak temperature). […] As evidenced by the presence of n-butanol methylene proton at ~3.7 ppm (1.5:1, molar ratio of n-butanol/API) detected by ^1H NMR in FIG. 4D, Form E was deemed to be an n-butanol solvate.

C[C@H](CC[C@](C)(O)C(F)(F)F)[C@H]1CC[C@H]2[C@@H]3CC=C4C[C@@](C)(O)CC[C@]4(C)[C@H]3CC[C@]12C [Form A]
water uptake (DVS) ([1]; 25° C./80% RH): 0.05%
form change after DVS test (XRPD overlay before and after) ([1]; DVS isotherm collected at 25° C.): no form change
hygroscopicity ([1]; from DVS at 25° C./80% RH): non-hygroscopic

C[C@H](CC[C@](C)(O)C(F)(F)F)[C@H]1CC[C@H]2[C@@H]3CC=C4C[C@@](C)(O)CC[C@]4(C)[C@H]3CC[C@]12C [Form D]
solid form after heating (XRPD) ([2]; heating to 150° C.): converted to Form A

C[C@H](CC[C@](C)(O)C(F)(F)F)[C@H]1CC[C@H]2[C@@H]3CC=C4C[C@@](C)(O)CC[C@]4(C)[C@H]3CC[C@]12C [Form E]
solid form after heating (XRPD) ([2]; heating to 140° C.): converted to Form B
